Data as given in PMC2074382 (British Journal of Cancer, 1996).
Where “and” joins values, the source holds several entries; their conditions need not be identical. Equal values may be shown once. Where a name gives a salt, the structure may show the parent alone.

Assay: Pharmacokinetics (lactone form, HPLC, non-compartmental) in plasma and urine, days 1 and 4 of first course
From the text: British Journal of Cancer (1996) 73, 744-750 O (C? 1996 Stockton Press All rights reserved 0007-0920/96 $12.00 Phase I and pharmacological study of the new topoisomerase I inhibitor G1147211, using a daily x 5 intravenous administration CJH Gerrits', GJ Creemers', JHM Schellens', P Wissel2, AS Th Planting', R Kunka2, K Selinger2, M de Boer-Dennert', Y Marijnen3, M Harteveld' and J Verweijl 'Department of Medical Oncology, Rotterdam Cancer Institute, Rotterdam, The Netherlands; 2Glaxo Wellcome Inc, Department of Clinical Pharmacology, NC, USA; 3Glaxo Wellcome Inc, Department of Clinical Research, Zeist, The Netherlands. Summary Topoisomerase I inhibitors are interesting anti-cancer agents with a novel mechanism of action. […] In subsequent patient cohorts the dose was escalated from 0.3 to 1.5 mg m-2 day-'. Pharmacokinetics analysis was performed on days 1 and 4 of the first course using a validated high- performance liquid chromatographic assay and non-compartmental methods. […] Its further development was stopped because of unpredictable and severe myelosuppression, gastrointestinal toxicity and haemorrhagic cystitis. In the late 1980s two discoveries brought about a renewal of interest in CPT; firstly, topoisomerase I was identified as the single cellular target of CPT (Hsiang et al., 1985; Hsiang and Liu, 1988) and, secondly, an overexpression of topoisomerase I was found in various tumour cell lines but not in normal tissues (Giovanella et al., 1989; Hirabayaski et al., 1992; Potmesil et al., 1988). Topoisomerase I is a nuclear enzyme that resolves topological problems of the torsionally strained (supercoiled) DNA (Slichenmyer et al., 1993). This is achieved by forming a covalent adduct between topoisome- rase I and the DNA, termed the cleavable complex. This catalytic intermediate creates single-strand DNA breaks, allowing the DNA molecule to rotate around the intact DNA strand at the cleavage site, leading to a relaxation of the DNA molecule and in this way replication, transcription and other DNA functions can proceed. These enzyme- bridged breaks are then resealed by topoisomerase I. CPT stabilises the cleavable complexes, thereby preventing resealing of single-strand DNA breaks in the presence of the drug (Covey et al., 1989; D'Arpa and Liu, 1989; Eng et al., 1988). Cytotoxicity is specific to the S-phase of the cell cycle because the double-strand breaks that occur during this phase are more difficult to repair in the presence of the drug (Horwitz and Horwitz, 1973). […] Other eligibility criteria included: (1) age>, 18 years; (2) an Eastern Cooperative Oncology Group (ECOG) performance status <2; (3) a predicted life expectancy of at least 3 months; (4) no previous anti-cancer therapy for at least 3 weeks (6 weeks for previous nitro- soureas or mitomycin C); (5) adequate haemato- poietic (WBC) 3 x 109 -', ANC > 1.5 x 109 1-' and platelets 100 x 10 1- 1), hepatic (bilirubin within normal limits, AST, ALT and/or alkaline phosphatase < 2.0 x normal), and renal (serum creatinine < 130 imol 1-') functions. All patients gave written informed consent.

[1] = 0.3 mg m-2, day 1, individual patients 1-3 in order
[2] = 0.3 mg m-2, day 1, mean of dose level
[3] = 0.3 mg m-2, day 4, individual patients 1-3 in order
[4] = 0.3 mg m-2, day 4, mean of dose level
[5] = 0.6 mg m-2, day 1, individual patients 4-6 in order
[6] = 0.6 mg m-2, day 1, mean of dose level
[7] = 0.6 mg m-2, day 4, individual patients 4-6 in order
[8] = 0.6 mg m-2, day 4, mean of dose level
[9] = 1.2 mg m-2, day 1, individual patients 7-12 in order
[10] = 1.2 mg m-2, day 1, mean of dose level

## CC[C@@]1(O)C(=O)OCc2c1cc1n(c2=O)Cc2c-1nc1cc3c(cc1c2CN1CCN(C)CC1)OCCO3 [GI147211, [7 - (methylpiperazinomethylene) - 10,11 - ethylene-dioxy-20(S)] camptothecin dihydrochloride]
[1]
  AUCinf: 4.93 ng·h/mL and 4.04 ng·h/mL and 4.77 ng·h/mL
  Clearance, total plasma clearance: 1014 ml min-1 m-2 and 1238 ml min-1 m-2 and 1048 ml min-1 m-2
  Cmax: 3.63 ng/mL and 4.27 ng/mL and 3.73 ng/mL
  MRT: 2.89 h and 1.66 h and 3.33 h
  Vdss: 161 l m-2 and 104 l m-2 and 194 l m-2
  t1/2, elimination half-life: 2.96 h and 1.99 h and 2.63 h
  tmax: 0.42 h
[2]
  AUCinf, mean: 4.58 ng·h/mL
  Clearance, mean: 1100 ml min-1 m-2
  Cmax, mean: 3.88 ng/mL
  MRT, mean: 2.63 h
  Vdss, mean: 153 l m-2
  t1/2, mean: 2.52 h
  tmax, mean: 0.42 h
[3]
  AUCinf: 6.19 ng·h/mL and 6.79 ng·h/mL and 7.46 ng·h/mL
  Clearance, total plasma clearance: 808 ml min-1 m-2 and 736 ml min-1 m-2 and 670 ml min-1 m-2
  Cmax: 4.73 ng/mL and 4.30 ng/mL and 5.11 ng/mL
  MRT: 4.62 h and 4.73 h and 5.30 h
  Vdss: 207 l m-2 and 199 l m-2 (2×)
  t1/2, elimination half-life: 4.82 h and 2.34 h and 3.81 h
  tmax: 0.25 h (2×) and 0.42 h
[4]
  AUCinf, mean: 6.81 ng·h/mL
  Clearance, mean: 738 ml min-1 m-2
  Cmax, mean: 4.71 ng/mL
  MRT, mean: 4.88 h
  Vdss, mean: 202 l m-2
  t1/2, mean: 3.65 h
  tmax, mean: 0.31 h
[5]
  AUCinf: 10.10 ng·h/mL and 15.63 ng·h/mL and 14.00 ng·h/mL
  Clearance, total plasma clearance: 990 ml min-1 m-2 and 640 ml min-1 m-2 and 714 ml min-1 m-2
  Cmax: 9.16 ng/mL and 9.41 ng/mL and 11.46 ng/mL
  MRT: 4.01 h and 3.74 h and 3.52 h
  Vdss: 223 l m-2 and 134 l m-2 and 140 l m-2
  t1/2, elimination half-life: 3.35 h and 2.81 h and 2.80 h
  tmax: 0.42 h
[6]
  AUCinf, mean: 13.25 ng·h/mL
  Clearance, mean: 781 ml min-1 m-2
  Cmax, mean: 10.01 ng/mL
  MRT, mean: 3.76 h
  Vdss, mean: 166 l m-2
  t1/2, mean: 2.98 h
  tmax, mean: 0.42 h
[7]
  AUCinf: 11.21 ng·h/mL and 15.10 ng·h/mL and 15.94 ng·h/mL
  Clearance, total plasma clearance: 892 ml min-1 m-2 and 662 ml min-1 m-2
  Cmax: 7.60 ng/mL and 8.13 ng/mL and 9.29 ng/mL
  MRT: 4.89 h and 5.38 h and 6.35 h
  Vdss: 246 l m-2 and 203 l m-2 and 224 l m-2
  t1/2, elimination half-life: 3.42 h and 3.78 h and 4.15 h
  tmax: 0.42 h (2×) and 0.25 h
[8]
  AUCinf, mean: 14.08 ng·h/mL
  Clearance, mean: 727 ml min-1 m-2
  Cmax, mean: 8.34 ng/mL
  MRT, mean: 5.54 h
  Vdss, mean: 224 l m-2
  t1/2, mean: 3.78 h
  tmax, mean: 0.36 h
[9]
  AUCinf: 17.57 ng·h/mL and 24.95 ng·h/mL and 16.70 ng·h/mL and 15.05 ng·h/mL and 19.86 ng·h/mL and 19.42 ng·h/mL
  Clearance, total plasma clearance: 1138 ml min-1 m-2 and 802 ml min-1 m-2 and 1198 ml min-1 m-2 and 1329 ml min-1 m-2 and 1007 ml min-1 m-2 and 1030 ml min-1 m-2
  Cmax: 17.33 ng/mL and 11.97 ng/mL and 15.99 ng/mL and 12.83 ng/mL and 14.11 ng/mL and 17.65 ng/mL
  MRT: 3.01 h and 5.18 h and 2.94 h and 3.04 h and 3.98 h and 2.66 h
  Vdss: 189 l m-2 and 237 l m-2 and 193 l m-2 and 223 l m-2 and 225 l m-2 and 149 l m-2
  t1/2, elimination half-life: 3.62 h and 4.04 h and 2.54 h and 2.40 h and 5.10 h and 2.97 h
  tmax: 0.42 h (5×) and 0.25 h
[10]
  AUCinf, mean: 18.93 ng·h/mL
  Clearance, mean: 1084 ml min-1 m-2
